Measured values published in patent US7893094B2, “Amphiphilic pyridinium compounds, method of making and use thereof” (The Henry M. Jackson Foundation for the Advancement of …, priority 2003, dated 2011).
Where two headings read alike, the source gives them in different places.

Test system: IL-8 secretion from CF IB-3 cells
Experiment: Suppression of spontaneously-elevated (constitutive) IL-8 secretion in IB-3 CF lung epithelial cells, IL-8 ELISA normalised to DNA
Type: cell-based
Conditions: for loss of potency: IL-8 secretion, relative to the most potent analogue, Compound 3
Experimental: The CF lung epithelial cells IB3 and S9 have been previously described [Zeitlin et al., 1991; Eidelman et al., 2001a)]. Both […] and S9 cells were grown in serum-free LHC-8 medium (Biofluids), formulated without gentimycin. CF tracheal epithelial cells (2CFTE29o-) were obtained from University of Vermont. The latter cells were grown in EMEM (Biofluids), supplemented with 10% fetal bovine serum (FBS) and 1% Penicillin G-Streptomycin.
Initial assays for dug effects in the screening paradigm were performed in duplicate at 10, 3, 1, and 0.3 μM concentrations on IB-3 cells grown in 96 well microtiter plates. Each individual plate contained IB-3 and IB-3/S9 cells to set the boundary conditions of the assay. CPX and DAX, 5 μM each, were included in separate wells as positive controls. “Hits” in the screen were chosen on the basis of at least a 50% reduction in constitutive IL-8 secretion. Following a positive retest, candidate compounds were taken off-line for more detailed analysis under the exact same assay conditions. […] In most circumstances we use a maximum final solvent concentration of 0.1% DMSO or 0.01% ETOH.
The details of this assay have been described in a previous publication (Eidehman et la., 2001 a). Briefly, IB-3 cells are grown in 96 well microtiter plates to 80% confluency. Drugs, diluted in LHC-8 medium at the given concentrations, are added, and the cells allowed to incubate for an additional 24 hours. To initiate the experiment, cells are washed with fresh LHC-8 medium, and then incubated for an additional 16 hours in the same medium supplemented with drug. At the end of the time period, the supernatant solutions are collected and assayed for IL-8 by and ELISA assay. Alternatively, the samples are immediately frozen at −80° C. […] The IL-8 ELISA assay was assembled from bulk materials purchased from R&D, and performed exactly according to the manufacturers specifications. To detect possible drug toxicity on cells, as well as normalize to total cells per well, we measure the double stranded DNA content of cells attached to the plate after removal of supernatant solutions for IL-8 assay. Cells remaining on the plate are then fixed with 10% formalin for 30 minutes at room temperature before being incubated with propidium iodide (kit from Boehringer Mannheim). Propidium iodide content in each well is then measured with an automated fluorescence plate reader (FLUOstar Optima, MBG Lab Technologies). Final IL-8 data are calculated as a ratio of secreted IL-8 to DNA for each well. On occasion, cell proliferation assays are also carried out using the XTT assay (Roche).

[1] = inhibition of IL-8 secretion from CF IB-3 cells, Table 3 prints no unit (b104 gives μM for Compound 3), read-out: IC50

8-(3-carboxyamido-pyridinium)-n-octylα-methyl-2-(4[2-methylpropyl]benzene)-acetate iodide [Compound 18]
IC50 [1]: 5.56 ± 0.98 µM

8-Pyridinium-n-octyl benzoate iodide [Compound 11]
IC50 [1]: > 30 µM

8-Pyridinium-n-octyl propionate iodide [Compound 7]
loss of potency: 34 fold | IC50 [1]: 12 ± 0.8 µM

C[C@H](OCc1ccccc1)C(=O)OCCCCCCCC[n+]1ccccc1 [Compound 10, S-8-Pyridinium-n-octyl α-benzyloxy-2-propionate iodide]
IC50 [1]: > 30 µM

CC(C(=O)OCCCCCCCC[n+]1ccccc1)c1ccc(NC(=O)OC(C)(C)C)cc1.[I-] (stereo not drawn) [Compound 16]
activity on IL-8 secretion/production, in words: retention of the activity | IC50 [1]: 4.6 ± 0.9 µM

CC(C(=O)OCCCCCCCC[n+]1ccccc1)c1ccc(N)cc1.I.[I-] (stereo not drawn) [Compound 17, 8-Pyridinium-n-octyl α-methyl-2-[4-ammonium-phenyl]acetate iodide]
activity on IL-8 secretion/production, in words: eliminated activity | IC50 [1]: > 30 µM

CC(C)Cc1ccc([C@H](C)C(=O)OCCCCCCCC[N+]2(C)CCOCC2)cc1.[Br-] [Compound 21, S-8-[N-Methylmorpholinium-n-octyl α-methyl-2-(4]2-methylpropyl]benzene)acetate bromide]
IC50 [1]: 24 ± 1 µM

R-8-Pyridinium-n-butyl α-methyl-2-phenylacetate iodide [Compound 1]
IC50 [1]: > 30 µM

R-8-Pyridinium-n-decyl α-methyl-2-phenylacetate iodide [Compound 4]
IC50 [1]: 2.52 ± 0.39 µM

R-8-Pyridinium-n-hexyl α-methyl-2-phenylacetate iodide [Compound 2]
IC50 [1]: > 30 µM

R-8-Pyridinium-n-octyl 2-hydroxy-3-phenylpropionate iodide [Compound 12]
activity on IL-8 secretion/production, in words: no activity was evident | IC50 [1]: > 30 µM

R-8-Pyridinium-n-octyl α-ethyl-2-phenylacetate iodide [Compound 8]
activity on IL-8 secretion/production, in words: eliminated the activity | IC50 [1]: 3.16 ± 0.52 µM

R-8-Pyridinium-n-octyl α-hydroxy-α-methyl-2-phenylacetate iodide [Compound 6]
activity on IL-8 secretion/production, in words: failed to restore the activity | IC50 [1]: > 30 µM

R-8-Pyridinium-n-octyl α-methyl-2-phenylacetate iodide [Compound 3]
IC50 (IB-3 CF cells, read-out: IC50, inhibition of IL-8 secretion): 0.35 µM | stereoselectivity of action in favor of the (R)-isomer (IL-8 production, Compound 3 (R) versus its enantiomer Compound 5): > 70 fold

S,S-1.8-di((α-methyl 2-(4-[2-methylpropyl]phenyl acetoxy)-n-octane [Compound 22]
activity on IL-8 secretion/production, in words: eliminated the activity | IC50 [1]: > 30 µM

S-8-(4-2-hydroxy-ethyl)pyridinium)-n-octyl α-methyl-2-(4-[2-methylpropyl]benzene)acetate bromide [Compound 20]
IC50 [1]: 18 ± 0.9 µM

S-8-(4-n-Prolpylpyridinium)-n-octyl α-methyl-2-(4-[2-methylpropyl]benzene)acetate bromide [Compound 19]
IC50 [1]: 3.3 ± 0.5 µM

S-8-Pyridinium-n-octyl 2-hydroxy-3-phenylpropionate iodide [Compound 13]
activity on IL-8 secretion/production, in words: no activity was evident | IC50 [1]: > 30 µM

S-8-Pyridinium-n-octyl α-methoxy-2-phenylacetate iodide [Compound 9]
activity on IL-8 secretion/production, in words: failed to restore the activity | IC50 [1]: > 30 µM

S-8-Pyridinium-n-octyl α-methyl-2-(4-[2-methylpropyllbenzeneacetate bromide [Compound 15]
loss of potency: 6 fold | IC50 [1]: 2.2 ± 0.8 µM

S-8-Pyridinium-n-octyl α-methyl-2-phenylacetate iodide [Compound 5]
activity on IL-8 secretion/production, in words: much less active | IC50 [1]: > 25 µM
